Patent US12679836B2, “4H-pyrrolo[3,2-c]pyridin-4-one compounds” (Bayer Aktiengesellschaft, priority 2019, dated 2026)
Like-named read-outs stand apart in the source and are kept apart here.

Columns and labels:
[1] = molecular target: T1, EGFR with insertion of SVD between D770 and N771 (EGFR ins SVD) (Homo sapiens, UniProt P00533, DUP768-770); experiment: Exon20-Mutant-EGFR(D770_N771insSVD) kinase assay (TR-FRET); type: biochemical; conditions: 2 mM ATP, several values per example where printed
T1 construct: made in house; host or cells: Sf9 insect cells (baculovirus)
T1 sequence (P00533 with tags, fused parts or gaps DUP768-770): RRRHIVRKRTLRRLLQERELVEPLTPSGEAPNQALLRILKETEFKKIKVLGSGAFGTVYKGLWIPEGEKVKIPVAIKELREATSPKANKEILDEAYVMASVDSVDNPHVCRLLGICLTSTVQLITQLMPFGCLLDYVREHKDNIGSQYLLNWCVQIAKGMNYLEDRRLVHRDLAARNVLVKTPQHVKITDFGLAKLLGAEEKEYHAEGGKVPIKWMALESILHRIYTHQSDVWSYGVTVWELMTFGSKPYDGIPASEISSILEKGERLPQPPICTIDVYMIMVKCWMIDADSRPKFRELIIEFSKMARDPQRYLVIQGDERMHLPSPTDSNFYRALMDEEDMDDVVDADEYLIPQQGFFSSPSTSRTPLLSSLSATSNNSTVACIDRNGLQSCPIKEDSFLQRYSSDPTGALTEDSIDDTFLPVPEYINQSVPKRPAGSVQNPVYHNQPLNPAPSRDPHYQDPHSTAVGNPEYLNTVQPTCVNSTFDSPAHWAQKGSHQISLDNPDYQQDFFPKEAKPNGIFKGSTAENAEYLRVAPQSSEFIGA

Bub1 = molecular target: T2, Bub1 (Homo sapiens, UniProt O43683); experiment: Bub1 TR-FRET high ATP kinase assay; type: biochemical; conditions: 2 mM ATP
T2 construct: catalytic domain of human Bub1 (amino acids 704-1085); His6 (N); made in house; host or cells: Hi5 insect cells
T2 sequence (O43683 704-1085): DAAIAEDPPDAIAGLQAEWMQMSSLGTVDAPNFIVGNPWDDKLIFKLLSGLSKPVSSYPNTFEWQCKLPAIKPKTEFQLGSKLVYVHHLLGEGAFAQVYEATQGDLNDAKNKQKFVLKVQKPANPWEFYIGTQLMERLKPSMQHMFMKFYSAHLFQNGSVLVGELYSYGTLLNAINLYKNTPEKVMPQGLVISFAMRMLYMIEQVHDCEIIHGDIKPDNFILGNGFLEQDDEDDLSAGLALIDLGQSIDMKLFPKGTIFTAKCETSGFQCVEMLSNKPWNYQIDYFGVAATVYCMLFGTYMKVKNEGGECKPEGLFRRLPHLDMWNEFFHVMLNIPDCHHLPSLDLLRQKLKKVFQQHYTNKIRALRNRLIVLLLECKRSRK
Source text: Bub1 High ATP Kinase Assay
Bub1-inhibitory activity of compounds of the present invention at a high ATP concentration was quantified employing the Bub1 TR-FRET high ATP kinase assay as described in the following paragraphs.
N-terminally His6-tagged recombinant catalytic domain of human Bub1 (amino acids 704-1085), expressed in insect cells (Hi5) and purified by Ni-NTA affinity chromatography and subsequent size exclusion chromatography, was used as enzyme. As substrate for the kinase reaction the biotinylated peptide biotin-Ahx-[…]—SEQ ID 7 (C-terminus in amid form) was used which can be purchased e.g. form the company Biosyntan (Berlin, Germany).

Ba/F3-EGFR-WT cells = Ba/F3-EGFR-WT cells (Homo sapiens, UniProt P00533); experiment: Ba/F3 cell survival assay (Cell Titer-Glo), WT EGFR; type: cell-based; conditions: without IL-3, with 10 ng/mL EGF, 48 h; read-out: BA/F3 (wild type) IC50
Sequence of Ba/F3-EGFR-WT cells (P00533 whole entry, stated change not applied): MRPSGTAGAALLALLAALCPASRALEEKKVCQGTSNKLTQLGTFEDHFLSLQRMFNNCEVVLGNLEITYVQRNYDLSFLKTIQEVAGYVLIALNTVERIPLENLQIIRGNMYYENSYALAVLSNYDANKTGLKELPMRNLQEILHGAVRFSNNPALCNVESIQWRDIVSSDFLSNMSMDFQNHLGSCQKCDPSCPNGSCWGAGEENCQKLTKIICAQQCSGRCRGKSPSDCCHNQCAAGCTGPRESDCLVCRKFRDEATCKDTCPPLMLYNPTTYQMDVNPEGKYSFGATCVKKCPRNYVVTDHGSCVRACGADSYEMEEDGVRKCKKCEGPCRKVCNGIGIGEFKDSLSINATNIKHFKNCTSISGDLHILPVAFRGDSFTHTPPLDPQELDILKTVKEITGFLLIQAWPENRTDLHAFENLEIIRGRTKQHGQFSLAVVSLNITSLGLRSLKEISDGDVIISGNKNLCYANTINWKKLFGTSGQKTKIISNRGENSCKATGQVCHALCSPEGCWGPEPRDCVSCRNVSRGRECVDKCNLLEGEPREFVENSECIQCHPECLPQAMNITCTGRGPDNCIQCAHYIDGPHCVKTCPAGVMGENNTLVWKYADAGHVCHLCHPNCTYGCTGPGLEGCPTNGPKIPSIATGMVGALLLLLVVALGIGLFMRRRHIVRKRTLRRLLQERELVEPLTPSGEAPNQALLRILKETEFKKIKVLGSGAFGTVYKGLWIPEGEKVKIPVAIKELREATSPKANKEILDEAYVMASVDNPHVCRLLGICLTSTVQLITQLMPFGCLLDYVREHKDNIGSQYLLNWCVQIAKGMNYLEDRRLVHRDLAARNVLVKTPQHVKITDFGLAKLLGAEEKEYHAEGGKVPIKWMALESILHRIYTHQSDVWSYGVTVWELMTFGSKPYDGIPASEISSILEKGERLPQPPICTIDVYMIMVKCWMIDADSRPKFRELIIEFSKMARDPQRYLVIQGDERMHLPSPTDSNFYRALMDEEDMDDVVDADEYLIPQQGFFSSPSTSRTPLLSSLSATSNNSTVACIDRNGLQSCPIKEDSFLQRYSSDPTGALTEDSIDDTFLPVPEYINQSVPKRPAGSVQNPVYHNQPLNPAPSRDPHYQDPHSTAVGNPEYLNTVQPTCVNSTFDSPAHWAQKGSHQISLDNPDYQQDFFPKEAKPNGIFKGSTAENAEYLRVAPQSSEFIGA
Description: (§1) 293T cells from ATCC were transfected with pBABEpuro expression constructs for WT EGFR or EGFR-insSVD and pCL-Eco packaging vector using Fugene-6 transfection reagent from Promega. Plates were incubated at 37° C. for 48 h. Retrovirus was harvested by filtering the media supernatant through a 0.45 μm filter.
(§2) Ba/F3 cells purchased from DSMZ were grown in RPMI+10% FBS+10 ng/mL IL-3 and infected with filtered retroviral supernatant at a 1:2 dilution. Polybrene was added to a concentration of 8 μg/mL, plates were spun for 90 min, and incubated overnight at 37° C. 2 μg/mL puromycin was added to the infected cells 24 h after infection and cells were continually grown in the presence of puromycin and 10 ng/mL IL-3. Following stably expressing Ba/F3 cell lines were generated: Ba/F3-EGFR-WT, Ba/F3-EGFR-insSVD, (Ba/F3-vector-control).
(§3) For cell survival assays, Ba/F3 cells were grown to a density of 1-2 million cells per mL, spun down and resuspended in media without IL-3, and replated at a concentration 200,000-500,000 cells per mL. The cells ectopically expressing WT EGFR or EGFR-insSVD were plated with 10 ng/mL Millipore Culture grade EGF. The cells ectopically expressing pBABEpuro empty vector were plated with 10 ng/mL IL-3. 2 days later, cells were plated in 50 μL in a 384 well plate at a concentration of 4000 cells per well for cells assayed in the absence of IL-3 and 2000 cells per well for cells assayed in the presence of IL-3. 100 nL of compound was added to each well using a 100 nL pin head, and plates were incubated at 37° C. for 48 h.
(§4) Cell viability was measured by adding 20 μL of Cell Titer-Glo Luminescent Cell Viability Reagent diluted 1:3 in PBS. Plates were sealed with Perkin Elmer Top-Seal, inverted several times to mix, and immediately centrifuged at 1000 rpm for 2 min. Plates were incubated in low light conditions for 8-10 min and luminescence was measured.

Ba/F3-EGFR-insSVD cells = Ba/F3-EGFR-insSVD cells (Homo sapiens, UniProt P00533, DUP768-770, cells depend on it); experiment: Ba/F3 cell survival assay (Cell Titer-Glo), EGFR-insSVD; type: cell-based; conditions: without IL-3, with 10 ng/mL EGF, 48 h; read-out: BA/F3 (insSVD) IC50
Sequence of Ba/F3-EGFR-insSVD cells (P00533 with tags, fused parts or gaps DUP768-770): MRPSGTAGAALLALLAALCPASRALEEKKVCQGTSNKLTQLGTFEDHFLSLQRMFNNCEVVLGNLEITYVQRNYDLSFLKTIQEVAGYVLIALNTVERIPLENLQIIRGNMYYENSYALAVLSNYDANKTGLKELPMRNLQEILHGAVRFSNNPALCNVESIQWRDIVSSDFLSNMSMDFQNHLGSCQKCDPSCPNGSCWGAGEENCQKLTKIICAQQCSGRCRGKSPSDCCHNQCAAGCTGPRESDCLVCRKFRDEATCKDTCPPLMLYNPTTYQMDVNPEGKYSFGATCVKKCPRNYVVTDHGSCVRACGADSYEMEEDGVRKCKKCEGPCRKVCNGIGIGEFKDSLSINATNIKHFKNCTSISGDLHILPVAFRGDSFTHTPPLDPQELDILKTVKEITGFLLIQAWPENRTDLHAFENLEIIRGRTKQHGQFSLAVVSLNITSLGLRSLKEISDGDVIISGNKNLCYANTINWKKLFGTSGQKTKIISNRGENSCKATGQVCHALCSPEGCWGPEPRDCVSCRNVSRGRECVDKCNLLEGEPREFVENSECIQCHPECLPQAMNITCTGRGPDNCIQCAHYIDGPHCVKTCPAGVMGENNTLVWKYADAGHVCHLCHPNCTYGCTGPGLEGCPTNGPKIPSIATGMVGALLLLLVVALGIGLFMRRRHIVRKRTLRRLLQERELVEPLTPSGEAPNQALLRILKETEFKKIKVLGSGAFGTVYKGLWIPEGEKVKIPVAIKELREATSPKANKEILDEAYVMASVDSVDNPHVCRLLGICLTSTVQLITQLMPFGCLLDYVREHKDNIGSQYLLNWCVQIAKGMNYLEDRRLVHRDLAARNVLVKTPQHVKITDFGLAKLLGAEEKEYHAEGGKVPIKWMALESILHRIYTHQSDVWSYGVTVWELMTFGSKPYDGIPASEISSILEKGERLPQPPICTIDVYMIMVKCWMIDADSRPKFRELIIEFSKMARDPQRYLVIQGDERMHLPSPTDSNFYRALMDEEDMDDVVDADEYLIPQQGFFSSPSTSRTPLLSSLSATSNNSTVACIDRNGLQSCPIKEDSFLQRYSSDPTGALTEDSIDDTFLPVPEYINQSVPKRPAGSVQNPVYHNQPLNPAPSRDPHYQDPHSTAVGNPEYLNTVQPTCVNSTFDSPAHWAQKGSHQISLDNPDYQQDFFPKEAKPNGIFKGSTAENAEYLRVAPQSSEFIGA
Description: as §1, §2, §3, §4

[2] = Bub1 high ATP (2 mM) IC50 [mol/l]
[3] = read-out: Bub1 high ATP (2 mM) IC50 [mol/l]

## COc1c(Cl)cccc1Nc1c(-c2ccncc2OC[C@H]2COCCO2)[nH]c2c1C(=O)NCC2 (single isomer, unassigned) [Example 3]
[1]
  mutEGFR (D770_N771insSVD) kinase assay IC50: 0.137 nM
Bub1; [2]
  IC50: 3330 nM
Ba/F3-EGFR-WT cells
  GI50: 755 nM
Ba/F3-EGFR-insSVD cells
  GI50: 22.8 nM

## O=C1NCCc2[nH]c(-c3ccncc3OCC3COCCO3)c(Nc3cccc(Cl)c3Cl)c21 (single isomer, unassigned) [Example 9, 3-(2,3-Dichloroanilino)-2-{3-[(1,4-dioxan-2-yl)methoxy]pyridin-4-yl}-1,5,6,7-tetrahydro-4H-pyrrolo[3,2-c]pyridin-4-one]
[1]
  mutEGFR (D770_N771insSVD) kinase assay IC50: 0.0891 nM
Bub1; [2]
  IC50: 4230 nM
Ba/F3-EGFR-WT cells
  GI50: 303 nM
Ba/F3-EGFR-insSVD cells
  GI50: 32.7 nM

## COc1c(Cl)cccc1Nc1c(-c2ccncc2OCC2CN(C)CCO2)[nH]c2c1C(=O)NCC2 (single isomer, unassigned) [Example 16, 3-(3-chloro-2-methoxyanilino)-2-(3-{[4-methylmorpholin-2-yl]methoxy}pyridin-4-yl)-1,5,6,7-tetrahydro-4H-pyrrolo[3,2-c]pyridin-4-one]
[1]
  mutEGFR (D770_N771insSVD) kinase assay IC50: 0.228 nM
Bub1; [2]
  IC50: > 20000 nM
Ba/F3-EGFR-WT cells
  GI50: 1050 nM
Ba/F3-EGFR-insSVD cells
  GI50: 126 nM

## COc1c(Cl)cccc1Nc1c(-c2ccncc2OCC2CN(C)CCO2)[nH]c2c1C(=O)NCC2 (single isomer, unassigned) [Example 17, 3-(3-chloro-2-methoxyanilino)-2-(3-{[4-methylmorpholin-2-yl]methoxy}pyridin-4-yl)-1,5,6,7-tetrahydro-4H-pyrrolo[3,2-c]pyridin-4-one]
[1]
  mutEGFR (D770_N771insSVD) kinase assay IC50: 0.156 nM
Bub1; [3]
  IC50: > 20000 nM
Ba/F3-EGFR-WT cells
  GI50: 231 nM
Ba/F3-EGFR-insSVD cells
  GI50: 9.53 nM

## COc1c(Cl)cccc1Nc1c(-c2ccncc2OCCC2COCCO2)[nH]c2c1C(=O)NCC2 (single isomer, unassigned) [Example 25, 3-(3-chloro-2-methoxyanilino)-2-{3-[2-(4-dioxan-2-yl)ethoxy]pyridin-4-yl}-1,5,6,7-tetrahydro-4H-pyrrolo[3,2-c]pyridin-4-one]
[1]
  mutEGFR (D770_N771insSVD) kinase assay IC50: 0.282 nM
Bub1; [2]
  IC50: > 20000 nM
Ba/F3-EGFR-WT cells
  GI50: 349 nM
Ba/F3-EGFR-insSVD cells
  GI50: 18.3 nM

## COc1c(Cl)cccc1Nc1c(-c2ccncc2OCCC2COCCO2)[nH]c2c1C(=O)NCC2 (single isomer, unassigned) [Example 26, 3-(3-chloro-2-methoxyanilino)-2-{3-[2-(4-dioxan-2-yl)ethoxy]pyridin-4-yl}-1,5,6,7-tetrahydro-4H-pyrrolo[3,2-c]pyridin-4-one]
[1]
  mutEGFR (D770_N771insSVD) kinase assay IC50: 0.213 nM
Bub1; [2]
  IC50: 1080 nM
Ba/F3-EGFR-WT cells
  GI50: 839 nM
Ba/F3-EGFR-insSVD cells
  GI50: 89.9 nM

## COc1c(F)cccc1Nc1c(-c2ccncc2OCC2COC(C)(C)CO2)[nH]c2c1C(=O)NCC2 (single isomer, unassigned) [Example 33, 2-(3-{[5,5-dimethyl-1,4-dioxan-2-yl]methoxy}pyridin-4-yl)-3-(3-fluoro-2-methoxyanilino)-1,5,6,7-tetrahydro-4H-pyrrolo[3,2-c]pyridin-4-one]
[1]
  mutEGFR (D770_N771insSVD) kinase assay IC50: 0.213 nM
Bub1; [2]
  IC50: > 20000 nM
Ba/F3-EGFR-WT cells
  GI50: 557 nM
Ba/F3-EGFR-insSVD cells
  GI50: 102 nM

## COc1c(F)cccc1Nc1c(-c2ccncc2OCC2COC(C)(C)CO2)[nH]c2c1C(=O)NCC2 (single isomer, unassigned) [Example 34, 2-(3-{[5,5-dimethyl-1,4-dioxan-2-yl]methoxy}pyridin-4-yl)-3-(3-fluoro-2-methoxyanilino)-1,5,6,7-tetrahydro-4H-pyrrolo[3,2-c]pyridin-4-one]
[1]
  mutEGFR (D770_N771insSVD) kinase assay IC50: 0.193 nM
Bub1; [3]
  IC50: > 20000 nM
Ba/F3-EGFR-WT cells
  GI50: 204 nM
Ba/F3-EGFR-insSVD cells
  GI50: 12 nM

## COc1c(F)cccc1Nc1c(-c2ccncc2OCCC2COCCO2)[nH]c2c1C(=O)NCC2 (single isomer, unassigned) [Example 35, 2-(3-{2-[1,4-dioxan-2-yl]ethoxy}pyridin-4-yl)-3-(3-fluoro-2-methoxyanilino)-1,5,6,7-tetrahydro-4H-pyrrolo[3,2-c]pyridin-4-one]
[1]
  mutEGFR (D770_N771insSVD) kinase assay IC50: 0.0873 nM
Bub1; [2]
  IC50: > 20000 nM
Ba/F3-EGFR-WT cells
  GI50: 261 nM
Ba/F3-EGFR-insSVD cells
  GI50: 21.5 nM

## Cc1c(F)cccc1Nc1c(-c2ccncc2OCC2COC(C)(C)CO2)[nH]c2c1C(=O)NCC2 (single isomer, unassigned) [Example 39, 2-[3-[(5,5-dimethyl-1,4-dioxan-2-yl)methoxy]-4-pyridyl]-3-(3-fluoro-2-methyl-anilino)-1,5,6,7-tetrahydropyrrolo[3,2-c]pyridin-4-one]
[1]
  mutEGFR (D770_N771insSVD) kinase assay IC50: 0.304 nM
Bub1; [2]
  IC50: > 20000 nM
Ba/F3-EGFR-WT cells
  GI50: 630 nM
Ba/F3-EGFR-insSVD cells
  GI50: 44 nM

## Cc1c(F)cccc1Nc1c(-c2ccncc2OCC2COCCO2)[nH]c2c1C(=O)NCC2 (single isomer, unassigned) [Example 49, 2-[3-(1,4-dioxan-2-ylmethoxy)-4-pyridyl]-3-(3-fluoro-2-methyl-anilino)-1,5,6,7-tetrahydropyrrolo[3,2-c]pyridin-4-one]
[1]
  mutEGFR (D770_N771insSVD) kinase assay IC50: 0.17 nM
Bub1; [2]
  IC50: 3930 nM
Ba/F3-EGFR-WT cells
  GI50: 785 nM
Ba/F3-EGFR-insSVD cells
  GI50: 53.6 nM

## Cc1c(Cl)cccc1Nc1c(-c2ccncc2OC[C@H]2COCCO2)[nH]c2c1C(=O)NCC2 (single isomer, unassigned) [Example 51]
[1]
  mutEGFR (D770_N771insSVD) kinase assay IC50: 0.136 nM
Bub1; [2]
  IC50: 1520 nM
Ba/F3-EGFR-WT cells
  GI50: 742 nM
Ba/F3-EGFR-insSVD cells
  GI50: 46.7 nM

## CCc1c(Cl)cccc1Nc1c(-c2ccncc2OC[C@@H]2COCCO2)[nH]c2c1C(=O)NCC2 (single isomer, unassigned) [Example 53]
[1]
  mutEGFR (D770_N771insSVD) kinase assay IC50: 0.426 nM
Bub1; [2]
  IC50: 1360 nM
Ba/F3-EGFR-WT cells
  GI50: 408 nM
Ba/F3-EGFR-insSVD cells
  GI50: 21.3 nM

## CCc1c(Cl)cccc1Nc1c(-c2ccncc2OC[C@H]2COCCO2)[nH]c2c1C(=O)NCC2 (single isomer, unassigned) [Example 54]
[1]
  mutEGFR (D770_N771insSVD) kinase assay IC50: 0.571 nM
Bub1; [2]
  IC50: 994 nM
Ba/F3-EGFR-WT cells
  GI50: 917 nM
Ba/F3-EGFR-insSVD cells
  GI50: 80.9 nM

## COc1c(Cl)cccc1Nc1c(-c2ccncc2O[C@@H](C)C2COCCO2)[nH]c2c1C(=O)NCC2 (single isomer, unassigned) [Example 59, 3-(3-chloro-2-methoxyanilino)-2-{3-[(1 S)-1-(1,4-dioxan-2-yl)ethoxy]pyridin-4-yl}-1,5,6,7-tetrahydro-4H-pyrrolo[3,2-c]pyridin-4-one]
[1]
  mutEGFR (D770_N771insSVD) kinase assay IC50: 0.235 nM
Bub1; [2]
  IC50: 12200 nM
Ba/F3-EGFR-WT cells
  GI50: 336 nM
Ba/F3-EGFR-insSVD cells
  GI50: 18.6 nM

## COc1c(Cl)cccc1Nc1c(-c2ccncc2O[C@H](C)C2COCCO2)[nH]c2c1C(=O)NCC2 (single isomer, unassigned) [Example 60]
[1]
  mutEGFR (D770_N771insSVD) kinase assay IC50: 0.305 nM
Bub1; [2]
  IC50: 16400 nM
Ba/F3-EGFR-WT cells
  GI50: 946 nM
Ba/F3-EGFR-insSVD cells
  GI50: 52.7 nM

## Cc1c(F)cccc1Nc1c(-c2ccncc2OCC2CN(C)CCO2)[nH]c2c1C(=O)NCC2 (single isomer, unassigned) [Example 63, 3-(3-fluoro-2-methylanilino)-2-(3-{[4-methylmorpholin-2-yl]methoxy}pyridin-4-yl)-1,5,6,7-tetrahydro-4H-pyrrolo[3,2-c]pyridin-4-one]
[1]
  mutEGFR (D770_N771insSVD) kinase assay IC50: 0.265 nM
Bub1; [2]
  IC50: > 20000 nM
Ba/F3-EGFR-WT cells
  GI50: 1370 nM
Ba/F3-EGFR-insSVD cells
  GI50: 147 nM

## Cc1c(F)cccc1Nc1c(-c2ccncc2OCC2CN(C)CCO2)[nH]c2c1C(=O)NCC2 (single isomer, unassigned) [Example 64, 3-(3-fluoro-2-methylanilino)-2-(3-{[4-methylmorpholin-2-yl]methoxy}pyridin-4-yl)-1,5,6,7-tetrahydro-4H-pyrrolo[3,2-c]pyridin-4-one]
[1]
  mutEGFR (D770_N771insSVD) kinase assay IC50: 0.187 nM
Bub1; [3]
  IC50: > 20000 nM
Ba/F3-EGFR-WT cells
  GI50: 271 nM
Ba/F3-EGFR-insSVD cells
  GI50: 7.58 nM
